One may read the IC50 as the concentration needed to halve the response being measured. One may read the Ki as a dissociation constant, usually derived from enzyme kinetics or from competition with a known ligand.

Test [1] has as its system GR Ser211 phosphorylation. In words: Western blot of GR Ser211 phosphorylation. To be noted: for concentration dependence of GR Ser211 phosphorylation: HaCat cells, 6 h, 10, 100 or 1,000 nM. Type of test: cell-based. As for the experimental part:
Whole cell extracts contain multiple protease inhibitors (Complete Mini®, Roche) and Halt phosphatase inhibitor cocktail (Thermoscientific). Soluble protein extracts were obtained after three times freeze and thaw cycles and centrifugation at […] for 15 min at 4°C. Samples were separated by sodium dodecyl sulfate-polyacrylamidegel electrophoresis (SDS-PAGE) and transferred onto nitrocellulose membranes (Hybond C, Amersham) following standard protocols. After blocking, membranes were incubated overnight at 4°C with the primary antibodies: anti-GR (sc-8992, SantaCruz Biotechnology), anti-phospho-GR Ser211 (4161, Cell Signalling) and anti-Actin (A3853, Sigma-Aldrich) followed by dye-conjugated secondary antibodies (LI-COR® Biosciences). Bound complexes were detected with the Odyssey® infrared imaging system (LI-COR®) and quantified by Image J software.
Figure 5 Selective glucocorticoid receptor agonist GSK866 and its analogs UAMC-1217, UAMC-1218 trigger glucocorticoid receptor (GR) Ser211 phosphorylation. (A) Western detection of expression levels of Actin, GR, and GR Ser S211 phosphorylation in HaCat cells following 6 h treatment with 1 µM Dex, UAMC-1217, UAMC-1218, or GSK866. (B) Bar plot representation of Western blot intensities of Actin, GR, and GR Ser S211 phosphorylation observed in panel A, as quantified by Image J. (C) Western detection of expression levels of Actin, GR expression, and Ser S211 phosphorylation in HaCat cells following 6 h treatment with, respectively, 10, 100, or 1,000 nM Dex or UAMC-1217. (D) Bar plot representation of Western blot intensities of Actin, GR, and GR Ser S211 phosphorylation observed in panel (C), as quantified by free Image J software.
For orientation: Immunoblotting shows a protein as a band on a membrane.

Test [2] has as its system GR. Also on record: method as in PMID 27612544. To be noted: ref [14], cited from earlier work; for % inhibition of GR ligand binding: 1.5 nM [3H]-dexamethasone, 1 µM ligand.
Test [3] concerns GR. In words: Cell-based GR ligand-binding competition assay with [3H]-dexamethasone. Particulars: from IC50 values of ligand displacement assays; ref [14].
The test system of the next test is GILZ/TSC22D3 mRNA. The experiment in a line: qPCR of GR target gene GILZ/TSC22D3 in HaCat cells. Type of test: cell-based. To be noted: 6 h, 10, 100 or 1,000 nM, compared with Dex. As for the experimental part:
qPCR was performed using the GoTaq qPCR Master Mix (Promega) according to manufacturer’s instructions. In short, a 25 µl reaction volume mix per sample was prepared containing 12.5 µl GoTaq qPCR Master Mix, 0.4 µM forward and reverse primer, and nuclease-free water. We used the Rotor-Gene Q qPCR machine of Qiagen with following PCR program: 95°C for 2 min, 40 cycli denaturation (95°C, 15 s) and annealing/extension (60°C, 30 s), and dissociation (60–95°C). […] Each sample was run in triplicate. The median value of the triplicates were taken to calculate the deltaCt-values using GAPDH as the normalization gene.
(A) QPCR assays was performed against the GR target gene GILZ/TSC22D3 in HaCat cells treated for 6 h with different concentrations 10, 100 or 1,000 nM Dex or UAMC-1217. Bar graph plot represents the relative mRNA levels of GILZ/TSC22D3 upon Dex or UAMC-1217 treatment. (B) QPCR assays was performed against the TNF-inducible inflammatory gene interleukin-6 (IL6) in HaCat cells treated for 6 h with different concentrations 10, 100, or 1,000 nM Dex or UAMC-1217 either or not, cotreated for the last 4 h with TNF (2,500 IU/ml) as indicated in panel (B). […] Significant mean differences versus control setups panel (A) or TNF treated setup panel (B) are marked as *** (P < 0.001), **(P < 0.01), * (P < 0.05) and were determined by one-way ANOVA (Dunnetts Posttest).

A further test concerns recombinant GR-LBD (hGR). The experiment in a line: Mass spectrometry of tryptic peptides of recombinant GR-LBD after ligand incubation (covalent binding). Further details: species or system human. Particulars: 2 h at 37°C, trypsin digestion, LC-MS/MS.

SMILES strings stand for the structures.

Protocol for recombinant GR-LBD (hGR): Recombinant His6-MBP-mCaspase3 site-LBD-hGR was expressed in the Escherichia coli strain BL21codon + pICA2 that was transformed with the corresponding pLHM36LBD-hGR plasmid and in which expression was induced by Isopropyl β-D-1-thiogalactopyranoside (IPTG) under control of a pL-promotor. The transformed bacteria were grown in Luria Bertani medium supplemented with ampicillin (100 µg/ml) and kanamycin (50 µg/ml) overnight at 28°C before 1/100 inoculation in 12 × 0.5 l provided with Luria Bertani medium supplemented with ampicillin (100 µg/ml) and 1% glycerol in a shaker incubator. The cells were grown to an optical density at AU 600 nm of 0.65, transferred to 20°C and expression was induced by addition of 1 mM IPTG overnight. Cells were then harvested and frozen at −20°C. […] After thawing, the cells were re-suspended at 3 ml/g in cold 20 mM Tris-HCl pH 7.4, 200 mM NaCl, 1 mM EDTA, 1 tablet complete protease inhibitor cocktail from Roche/50 ml, and 10 mM β-mercaptoethanol. The cytoplasmic fraction was prepared by sonication of the cells on ice and isolated by centrifugation at 18,000 × g for 30 min. All further purification steps were conducted at 4°C. The clear supernatant was applied to an amylase column (BioLabs, XK26 × 20, 100 ml), equilibrated with 20 mM Tris–HCl pH 7.4, 200 mM NaCl, 1 mM EDTA, and 10 mM β-mercaptoethanol. The column was eluted with 20 mM Tris–HCl pH 7.4, 200 mM NaCl, 1 mM EDTA, 10 mM maltose, and 10 mM β-mercaptoethanol. […] Recombinant purified His-MBP-DEVD-GR-LBD fusion protein was dissolved at a concentration of 1 mg in 1.7 ml PBS buffer.
Each aliquot was incubated 2 h at 37°C. […] 120 µl of each sample was loaded onto a spin column and the flow-through was collected (1,500 × g, 2 min). Trypsin (5 µl of 20 mM stock solution) was added, and the samples were incubated 20 h at 37°C. Then, 0.1% FA (formic acid) (41.5 µl) and 20 mM TCEP in 0.1% FA (18.5 µl, 5.7 mg TCEP/ml) were added [final volume = 185 µl, final concentration TCEP = 2 mM, 1 µg material/2.5 μl], and the samples were subjected to LC–MS/MS analysis.
The obtained peptide mixtures were introduced onto an LC–MS/MS system; the Ultimate 3000 RSLC nano (Dionex, Amsterdam, The Netherlands) in-line connected to an LTQ-Orbitrap Velos (Thermo Fisher Scientific, Bremen, Germany). The sample mixture was loaded on a trapping column [made in-house, 100 µm internal diameter (I.D.) × 20 mm, 5 µm C18 beads (Reprosil-HD, Dr. Maisch)]. After back flushing from the trapping column, the sample was loaded on a reverse-phase column [made in-house, 75 µm I.D. × 150 mm, 5 µm C18 beads (Reprosil-HD, Dr. Maisch)].
The mass spectrometer was operated in data-dependent mode, automatically switching between MS and MS/MS acquisition for the 10 most abundant peaks in a given MS spectrum. […]

Take `C[C@@H]1C[C@H]2[C@@H]3CCC4=CC(=O)C=C[C@]4(C)[C@@]3(F)[C@@H](O)C[C@]2(C)[C@@]1(O)C(=O)CO` [Dex, Dexamethasone, reference compound]: the “concentration dependence of GR Ser211 phosphorylation” value in test [1] is “concentration-dependent increase of GR Ser211 phosphorylation”. In addition, in the test on GR [2], the “% inhibition of GR ligand binding” value is 100%.
On to `CCN(C[C@@](O)(CNC(=O)c1cnn(-c2ccc(F)cc2)c1N)C(F)(F)F)C(=O)c1c(Cl)ccc(NC(=O)CCl)c1Cl` [UAMC-1217], for which the “fold lower GR-LBD affinity versus GSK866” value in the test with GR [3] is “approx. 5 fold”. Moreover, the “GILZ/TSC22D3 gene expression” value in the test on GILZ/TSC22D3 mRNA is on record as “reduced transactivation effects”. Further, the “GR Ser211 phosphorylation” value in test [1] (1 µM, 6 h (UAMC-1158: Figure S2, 4 or 24 h)) is “enhance the Ser211 phosphorylation”. The “concentration dependence of GR Ser211 phosphorylation” value in test [1] is “concentration-dependent increase of GR Ser211 phosphorylation”. For the same compound, the “Modifications: GR-LBD cysteine-containing peptide covalently bound” value in the test with recombinant GR-LBD (hGR) is listed as “Cys-622”; with recombinant GR-LBD (hGR) (listed as 1217) it was “Peptide 615–633 → C622”. Further, the “% inhibition of GR ligand binding” value in the test with GR [2] is 92%. In addition, the IC50 with GR [2] (displacement of radiolabeled Dex, read-out: IC50 (GR radioligand binding)) is 0.022 µM. The Ki at GR [2] (displacement of radiolabeled Dex, read-out: Ki (GR radioligand binding)) was 0.011 µM.

The values are drawn from PMC5672024, “Selective Glucocorticoid Receptor Properties of GSK866 Analogs with Cysteine Reactive Warheads” (Frontiers in Immunology, 2017).
